# Tested on: MDA-MB-231 complex spheroid viability
# Test: Anticancer human tumor MDA-MB-231/ATCC cell line growth inhibition;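 also: drug exposure lasted 7 days starting on day 3 of spheroid growth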
# Conditions: for IC50: curve of first compound; for viability, T/C: stronger effect = lower value
# From the text: Multicellular complex tumor spheroid response to LSD1 Inhibitor Iadademstat in combination with a variety of drugs and investigational agents in selected tumor cell lines
# The current study was undertaken to assess response to LSD1 inhibitors in combination with standard-of-care drugs and investigational agents in solid tumor complex spheroid models as well as in the K-562 leukemia. Complex spheroids include a stromal component modeled by human endothelial cells (HUVEC) and fibroblasts modeled by human mesenchymal stem cells (MSCs). The concentration ranges selected for each drug and investigational agent were based upon clinically achievable concentrations if the clinical Cmax of the agent was known.
# Compounds. The drugs and investigational agents used in this study are listed on Table 1. All of the agents used, including staurosporine (NSC755774) and gemcitabine (NSC613327), were obtained from the Developmental Therapeutics Program, NCI. FDA-approved anticancer drugs are available from the NCI at http://dtp.nci.nih.gov/branches/dscb/oncology_drugset_explanation.html. Drugs and investigational agents were >95% pure by proton nuclear magnetic resonance (NMR) and liquid chromatography/mass spectrometry (LC/MS). Stock solutions were prepared at 400x in DMSO, stored at -70 degrees C, and diluted in fresh medium prior to their use. The final concentration of DMSO in cell culture wells never exceeded 0.25% (v/v). The FDA-approved anticancer drug set is available from the Developmental Therapeutics Program at https://dtp.cancer.gov/organization/dscb/obtaining/available_plates.htm. All drugs and investigational agents were tested over a range starting from a high concentration at or near the clinical Cmax and decreasing in half-log increments. If the clinical Cmax for an agent had not been determined, the highest concentration tested was 10 microM.
# Cell Lines. The patient-derived cancer cell (PDC) lines: 292921-168-R-J2-PDC, K24384-001-R-PDC, and 521955-158-R2-J5-PDC pancreatic carcinomas, 556581-035-R-J1 ovarian carcinoma, 324938-238-R-J1-PDC, 855422-203-R-J1-PDC and 883617-216-R-J1-PDC urothelial bladder carcinomas, 743489-274-T-PDC renal cell carcinoma, 138582-R-J1 Merkel cell tumor, K60290-347-R-J1 and K57222-313-R-J1-PDC glioblastomas, 653999-131-R-J2-PDC, LG0703-F948-PDC, and 349418-098-R-PDC non-small cell lung carcinomas, 885512-296-R-J2-PDC, 171881-019-R-J1-PDC breast carcinomas and 186277-243-T-J2-PDC and 233499-124-R-J2-PDC colon carcinomas were obtained from the NCI Patient-Derived Models Repository (PDMR, https://pdmr.cancer.gov). The established cell lines NCI/ADR-RES (RRID:CVCL_14520 and OVCAR-5 (RRID:CVCL_1628) ovarian carcinomas, 786-O (RRID:CVCL_1051) and A498 (RRID:CVCL_A498) renal cell carcinoma, NCI-H211 (ATCC, cat. CRL-5824; RRID:CVCL_1529), NCI-H196 (ATCC, cat. CRL-5823, RRID:CVCL_1509), SW 1271 (ATCC, cat. CRL-2177, RRID:CVCL_1716) and NCI-H1876 (ATCC, cat. CRL-5902, RRID:CVCL_1503) small cell lung carcinomas, MDA-MB-231 (RRID:CVCL_0062) and MDA-MB-468 (RRID:CVCL_0419)breast carcinomas (10-12). Pooled donor human umbilical vein endothelial cells (HUVEC, Lonza, cat. CC-2519) and human mesenchymal stem cells (hMSC, Lonza, cat. PT-2501) were purchased from Lonza (Walkersville, MD).
# Cell Culture. All cells were maintained in an incubator at 37 degrees C and 5% CO2 with 95% humidity. The PDC lines were cultured according to standard operating procedures established by the NCI PDMR (https://pdmr.cancer.gov). Briefly all PDCs were thawed and cultured in Matrigel-coated flasks prepared with a working solution of 1X Ham's F-12 nutrient mix, without supplementation (Invitrogen, Waltham, MA, cat. 11765054), 100 U/mL penicillin-streptomycin (Invitrogen, cat. 15140122), and 2.5% Matrigel (Corning Inc., Corning, NY, cat. 354248) for the first three passages. […]
# [1] = second compound 0.1 µM, first compound 0.00316 µM
# [2] = second compound 0.1 µM, first compound 0.01 µM
# [3] = second compound 0.1 µM, first compound 0.0316 µM
# [4] = second compound 0.1 µM, first compound 0.1 µM
# [5] = second compound 0.316 µM, first compound 0.00316 µM
# [6] = second compound 0.316 µM, first compound 0.01 µM
# [7] = second compound 0.316 µM, first compound 0.0316 µM
# [8] = second compound 0.316 µM, first compound 0.1 µM
# [9] = second compound 1 µM, first compound 0.00316 µM
# [10] = second compound 1 µM, first compound 0.01 µM
# [11] = second compound 1 µM, first compound 0.0316 µM
# [12] = second compound 1 µM, first compound 0.1 µM
# [13] = second compound 3.16 µM, first compound 0.00316 µM
# [14] = second compound 3.16 µM, first compound 0.01 µM
# [15] = second compound 3.16 µM, first compound 0.0316 µM
# [16] = second compound 3.16 µM, first compound 0.1 µM
# [17] = second compound 10 µM, first compound 0.00316 µM
# [18] = second compound 10 µM, first compound 0.01 µM
# [19] = second compound 10 µM, first compound 0.0316 µM
# [20] = second compound 10 µM, first compound 0.1 µM
structure (smiles),measurement,setting,value
CC[C@@]1(O)C(=O)OCc2c1cc1n(c2=O)Cc2cc3c(CN(C)C)c(O)ccc3nc2-1 + NC1CC1c1ccc(-c2cccc(O)c2)cc1,IC50,second compound 0.1 µM,1.63 nM
same,IC50,second compound 0.316 µM,0.845 nM
same,IC50,second compound 1 µM,0.672 nM
same,IC50,second compound 3.16 µM,1.04 nM
same,IC50,second compound 10 µM,< 0.316 nM
same,"viability, T/C","second compound 0.1 µM, first compound 0.000316 µM",72.6%
same,"viability, T/C","second compound 0.1 µM, first compound 0.001 µM",62.5%
same,"viability, T/C",[1],33.1%
same,"viability, T/C",[2],23.5%
same,"viability, T/C",[3],27.3%
same,"viability, T/C",[4],22%
same,"viability, T/C","second compound 0.316 µM, first compound 0.000316 µM",61.8%
same,"viability, T/C","second compound 0.316 µM, first compound 0.001 µM",48.1%
same,"viability, T/C",[5],28.9%
same,"viability, T/C",[6],25.3%
same,"viability, T/C",[7],26%
same,"viability, T/C",[8],20.4%
same,"viability, T/C","second compound 1 µM, first compound 0.000316 µM",62.3%
same,"viability, T/C","second compound 1 µM, first compound 0.001 µM",43.6%
same,"viability, T/C",[9],32%
same,"viability, T/C",[10],25.1%
same,"viability, T/C",[11],24.6%
same,"viability, T/C",[12],20.5%
same,"viability, T/C","second compound 3.16 µM, first compound 0.000316 µM",57.2%
same,"viability, T/C","second compound 3.16 µM, first compound 0.001 µM",50.8%
same,"viability, T/C",[13],29.4%
same,"viability, T/C",[14],25.5%
same,"viability, T/C",[15],25%
same,"viability, T/C",[16],20.9%
same,"viability, T/C","second compound 10 µM, first compound 0.000316 µM",49%
same,"viability, T/C","second compound 10 µM, first compound 0.001 µM",36.1%
same,"viability, T/C",[17],24.3%
same,"viability, T/C",[18],22.5%
same,"viability, T/C",[19],22.3%
same,"viability, T/C",[20],16.2%
COc1cc(C2c3cc4c(cc3C(OC3OC5COC(C)OC5C(O)C3O)C3COC(=O)C23)OCO4)cc(OC)c1O (stereo not given) + NC1CC1c1ccc(-c2cccc(O)c2)cc1,IC50,second compound 0.1 µM,22.6 nM
same,IC50,second compound 0.316 µM,13.4 nM
same,IC50,second compound 1 µM,15.4 nM
same,IC50,second compound 3.16 µM,< 9.49 nM
same,IC50,second compound 10 µM,< 9.49 nM
same,"viability, T/C","second compound 0.1 µM, first compound 0.00949 µM",67.5%
same,"viability, T/C","second compound 0.1 µM, first compound 0.03 µM",43.7%
same,"viability, T/C","second compound 0.1 µM, first compound 0.0949 µM",28.4%
same,"viability, T/C","second compound 0.1 µM, first compound 0.3 µM",25.9%
same,"viability, T/C","second compound 0.1 µM, first compound 0.949 µM",15.5%
same,"viability, T/C","second compound 0.1 µM, first compound 3 µM",12%
same,"viability, T/C","second compound 0.316 µM, first compound 0.00949 µM",55%
same,"viability, T/C","second compound 0.316 µM, first compound 0.03 µM",38.7%
same,"viability, T/C","second compound 0.316 µM, first compound 0.0949 µM",27.1%
same,"viability, T/C","second compound 0.316 µM, first compound 0.3 µM",20.5%
same,"viability, T/C","second compound 0.316 µM, first compound 0.949 µM",14.2%
same,"viability, T/C","second compound 0.316 µM, first compound 3 µM",11.3%
same,"viability, T/C","second compound 1 µM, first compound 0.00949 µM",56.7%
same,"viability, T/C","second compound 1 µM, first compound 0.03 µM",41.7%
same,"viability, T/C","second compound 1 µM, first compound 0.0949 µM",24.9%
same,"viability, T/C","second compound 1 µM, first compound 0.3 µM",23%
same,"viability, T/C","second compound 1 µM, first compound 0.949 µM",14%
same,"viability, T/C","second compound 1 µM, first compound 3 µM",11.9%
same,"viability, T/C","second compound 3.16 µM, first compound 0.00949 µM",48.6%
same,"viability, T/C","second compound 3.16 µM, first compound 0.03 µM",32.3%
same,"viability, T/C","second compound 3.16 µM, first compound 0.0949 µM",23.5%
same,"viability, T/C","second compound 3.16 µM, first compound 0.3 µM",20.3%
same,"viability, T/C","second compound 3.16 µM, first compound 0.949 µM",14.7%
same,"viability, T/C","second compound 3.16 µM, first compound 3 µM",11.7%
same,"viability, T/C","second compound 10 µM, first compound 0.00949 µM",38.2%
same,"viability, T/C","second compound 10 µM, first compound 0.03 µM",25.5%
same,"viability, T/C","second compound 10 µM, first compound 0.0949 µM",24.9%
same,"viability, T/C","second compound 10 µM, first compound 0.3 µM",20.1%
same,"viability, T/C","second compound 10 µM, first compound 0.949 µM",11.6%
same,"viability, T/C","second compound 10 µM, first compound 3 µM",10%
Nc1ncn(C2CC(O)C(CO)O2)c(=O)n1 (stereo not given) + NC1CC1c1ccc(-c2cccc(O)c2)cc1,IC50,second compound 0.1 µM,> 1000 nM
same,IC50,second compound 0.316 µM,560 nM
same,IC50,second compound 1 µM,183 nM
same,IC50,second compound 3.16 µM,251 nM
same,IC50,second compound 10 µM,< 3.16 nM
same,"viability, T/C",[1],74.5%
same,"viability, T/C",[2],75.8%
same,"viability, T/C",[3],76.2%
same,"viability, T/C",[4],66.8%
same,"viability, T/C","second compound 0.1 µM, first compound 0.316 µM",55%
same,"viability, T/C","second compound 0.1 µM, first compound 1 µM",56%
same,"viability, T/C",[5],70.4%
same,"viability, T/C",[6],63.5%
same,"viability, T/C",[7],61.4%
same,"viability, T/C",[8],51.8%
same,"viability, T/C","second compound 0.316 µM, first compound 0.316 µM",50.9%
same,"viability, T/C","second compound 0.316 µM, first compound 1 µM",49.6%
same,"viability, T/C",[9],60.5%
same,"viability, T/C",[10],58.4%
same,"viability, T/C",[11],57.3%
same,"viability, T/C",[12],50.4%
same,"viability, T/C","second compound 1 µM, first compound 0.316 µM",47.7%
same,"viability, T/C","second compound 1 µM, first compound 1 µM",45%
same,"viability, T/C",[13],70.2%
same,"viability, T/C",[14],63.4%
same,"viability, T/C",[15],60.6%
same,"viability, T/C",[16],53.3%
same,"viability, T/C","second compound 3.16 µM, first compound 0.316 µM",49.6%
same,"viability, T/C","second compound 3.16 µM, first compound 1 µM",43.7%
same,"viability, T/C",[17],49.7%
same,"viability, T/C",[18],45.3%
same,"viability, T/C",[19],43.9%
same,"viability, T/C",[20],41.5%
same,"viability, T/C","second compound 10 µM, first compound 0.316 µM",40.3%
same,"viability, T/C","second compound 10 µM, first compound 1 µM",37.1%

# — PubChem BioAssay AID1918953 (Molecular Pharmacology Branch, DTP, NCI, 2023)
